Patent US5932709A (University of Michigan, priority 1997, dated 1999)
“And” between values parts separate entries of the source, which are not always exact repeats. Identical values can stand only once. Counter-ions that a name gives are not always drawn.

Legend:
[1] = human, in vivo; cited from earlier work
topoisomerase I = conditions: TPT-HCl; Wall et al.; cited from earlier work
tumor growth = conditions: in words; cited from earlier work
P388 murine leukemia = conditions: vs unmodified camptothecin, side by side; cited from earlier work
[2] = system: human lung tumor xenograft; experiment: Human lung tumor xenograft model; format: in vivo, human tumor in nude mice
Excerpt: (§1) For the human lung and prostate tumor xenograft models the following procedure was used. Nude mice were implanted s.c. by trocar with fragments of human lung or prostate carcinomas harvested from s.c. growing tumors in nude mice hosts. When tumors were approximately 5 mm×5 mm in size (usually ten to fourteen days after inoculation), the animals were pair-matched into treatment and control groups. Each group contained 10 tumored mice, each of which was ear-tagged and followed individually throughout the experiment. […] The doses, route of drug administration and schedule were selected as appropriate for the study in question. (See above protocol). […] Topotecan was run as a positive control at its MTD dose on a daily×5 and a daily×1 schedule. Male nude mice were used for both prostate studies.
(§2) Mice are weighed twice weekly, and tumor measurements were taken by calipers twice weekly, starting on day 1.
(§3) Some drugs cause tumor shrinkage in the human tumor xenograft models. […] A mean % tumor shrinkage can be calculated from the data from the mice in a group that experienced tumor regressions.

Lewis lung carcinoma = conditions: vs unmodified camptothecin, side by side; cited from earlier work
murine B16 melanoma = experiment: Murine B16 melanoma model in vivo; set-up: species or system mouse (B6D2F1); conditions: for Survivors: 60-day
Experimental: 1) Murine B16 Melanoma Model
(§4) For the B16 melanoma model, the following procedure was used. B6D2F1 mice receive i.p. inocula of B16 murine melanoma brei prepared from B16 tumors growing s.c. in mice (day 0). […] If dosing information for agents is not available, the maximum tolerated dose (MTD) is determined in initial dose finding experiments in non-tumored mice.
(§5) The mean survival times of all groups are calculated, and results are expressed as mean survival of treated mice/mean survival of control mice (T/C)×100%. A T/C value of 150 means that the mice in the treated group lived 50% longer than those of the control group; this is sometimes referred to as the increase in life span or ILS value.
Mice that survive for 60 days are considered long-term survivors, or cures, in the B16 model. The universally accepted cut-off for activity in this model, which has been for years by the National Cancer Institute, is T/C=125. Conventional use of B16 over the years has set the following levels of activity: T/C<125, no activity, T/C=125-150, weak activity; T/C=150-200, modest activity; T/C=200-300, high activity; T/C>300, with long term survivors; excellent, curative activity.

murine P388 leukemia = experiment: Murine P388 leukemia model in vivo; set-up: species or system mouse (B6D2F1)
Experimental: as §4, §5
For the P388 leukemia model, the procedure followed is exactly the same as the aforementioned B16 model. The tumor inoculum is prepared by removing ascited fluid containing P388 cells from tumored B6D2F1 mice, centrifuging the cells, and then resuspending the leukemia cells in saline. Mice receive 1×10^6 P388 cells i.p. on day 0.

[3] = system: MX-1 human breast tumor xenograft; experiment: in vivo
Excerpt: For all the models, the vehicle used to deliver the analog of interest was isotonic saline.
For the MX-1 human breast tumor xenograft models, the following procedure was used. Nude mice are implanted s.c. by trocar with fragments of MX-1 mammary carcinomas harvested from s.c. growing MX-1 tumors in nude mice hosts. When tumors are approximately 5 mm×5 mm in size (usually about ten days after inoculation), the animals are pair-matched into treatment and control groups. Each group contains ten tumored mice, each of which is ear-tagged and followed individually throughout the experiment. The administration of drugs or vehicle begins the day the animals are pair-matched (day 1). The doses, route of drug administration and schedule are selected as appropriate for the study in question. If the MTD dose of an agent is not known, it is determined in an initial dosing experiment in non-tumored mice. In a typical experiment, drugs are given at their MTD and 1/2 MTD doses i.p. on a daily×5 schedule.
The experiment is usually terminated when control tumors reach a size of 2-3 g. Mice are weighed twice weekly, and tumor measurements are taken by calipers twice weekly, starting on day 1. These tumor measurements are converted to mg tumor weight by a well known formula, and from these calculated tumor weights the termination date can be determined. Upon termination, all mice are weighed, sacrificed, and their tumors excised. Tumors are weighed, and the mean tumor weight per group is calculated.
Some drugs cause tumor shrinkage in the MX-1 model. With these agents, the final weight of a given tumor is subtracted from its own weight at the start of the treatment on day 1. This difference divided by the initial tumor weight is the % shrinkage. A mean % tumor shrinkage can be calculated from data from the mice in a group that experienced MX-1 regressions. If the tumor completely disappears in a mouse, this is considered a complete regression or complete tumor shrinkage. If desired, mice with partial or total tumor regressions can be kept alive past the termination date to see whether they live to become long term, tumor-free survivors.
Note that in the following table the abbreviation SR refers to tumor shrinkage rate, while those entries followed by a superscripted `2` are tumor growth inhibition rates, not tumor shrinkage rates.

[4] = system: human prostate tumor xenograft; experiment: Human prostate tumor xenograft model; format: in vivo, human tumor in nude mice
Excerpt: as §1, §2, §3

B16 murine melanoma = conditions: vs unmodified camptothecin, side by side; cited from earlier work
carcinoma cells = conditions: in vitro clonogenic assay / tumor cell growth, in words; cited from earlier work
[5] = as hydrochloride salt; cited from earlier work

CC[C@@]1(O)C(=O)OCc2c1cc1n(c2=O)Cc2cc3c(CN(C)C)c(O)ccc3nc2-1 [TPT, [(s)-9-dimethylaminomethyl-10-hydroxycamptothecin hydrochloride], reference compound]
side effects in human clinical studies [1]: myelosuppression, neutropenia, and thrombocytopenia
IC50 (topoisomerase I): 1100 nM
topoisomerase I IC50 (topoisomerase I): 0.504 µg/mL
effectiveness against tumor growth in animal studies (tumor growth): at least as good or better than camptothecin
in vivo antitumor efficacy (P388 murine leukemia): superior to unmodified camptothecin
Deaths ([2]; 4 mg/kg × 5 days): 0/10
Shrink (% Tumor Shrinkage Rate) ([2]; 4 mg/kg × 5 days): 55%
Shrink (number of animals) ([2]; 4 mg/kg × 5 days): 2/10
TGI (% Tumor Growth Inhibition Rate) ([2]; 4 mg/kg × 5 days): 66%
TGI (number of animals) ([2]; 4 mg/kg × 5 days): 8/10
Deaths ([2]; 8 mg single ds): 0/10
Shrink (number of animals) ([2]; 8 mg single ds): 0/10
TGI (number of animals) ([2]; 8 mg single ds): 0/10
efficacy, single dose ([2]; single dose, in words): completely ineffective
in vivo antitumor efficacy (Lewis lung carcinoma): superior to unmodified camptothecin
60-day survivors (cures) (murine B16 melanoma; 2 mg/kg): one
T/C (mean survival treated/control) (murine B16 melanoma; 2 mg/kg i.p. daily×5): 201%
Tox Deaths (murine B16 melanoma; 2 mg/kg i.p. daily×5): 0/10
ΔWeight (%) (murine B16 melanoma; 2 mg/kg i.p. daily×5): +1.9%
Survivors (murine B16 melanoma; 2 mg/kg i.p. daily×5): 1/10
T/C (mean survival treated/control) (murine B16 melanoma; 2 mg/kg i.p. daily×5, listed as Topotecan): 210%
T/C (mean survival treated/control) (murine B16 melanoma; 4 mg/kg i.p. daily×5): 212%
Tox Deaths (murine B16 melanoma; 4 mg/kg i.p. daily×5): 0/10
ΔWeight (%) (murine B16 melanoma; 4 mg/kg i.p. daily×5): -7.0%
Survivors (murine B16 melanoma; 4 mg/kg i.p. daily×5): 0/10
30-day survivors (murine P388 leukemia; 4 mg/kg daily×5): Three
T/C (mean survival treated/control) (murine P388 leukemia; 4 mg/kg i.p. daily×5): 297%
Tox Deaths (murine P388 leukemia; 4 mg/kg i.p. daily×5): 0/10
ΔWeight (%) (murine P388 leukemia; 4 mg/kg i.p. daily×5): -6.6%
Survivors (murine P388 leukemia; 4 mg/kg i.p. daily×5, 30-day): 3/10
efficacy vs P388 leukemia (murine P388 leukemia; i.p. five day schedule, in words): comparable to that produced by HAR 6
weight loss ([3]; 4 mg/kg): 15%
Tox Deaths ([3]; 4 mg/kg i.p. daily×5): 0/10
ΔWeight (%) ([3]; 4 mg/kg i.p. daily×5): -15.4%
mean tumor shrinkage ([3]; 4 mg/kg i.p. daily×5, all 10 mice, HAR 6 experiment): 94%
Shrinkage (animals) ([3]; 4 mg/kg i.p. daily×5, partial (94%)): 6/10
mice with tumor shrinkage ([3]; 4 mg/kg, HAR 6 experiment): 10
mortality ([3]; 4 mg/kg, HAR 6 experiment): no mortality
complete regressions ([3]; 4 mg/kg, second experiment): one
drug-related deaths ([3]; 4 mg/kg, second experiment): one
mice with tumor growth inhibition ([3]; 4 mg/kg, second experiment): two
partial responders ([3]; 4 mg/kg, second experiment): six
Shrinkage (animals) ([3]; 4 mg/kg, complete (100%) shrinkage): 1/10
tumor growth inhibition ([3]; 4 mg/kg, two mice, second experiment): 94%
SR(%) (Tumor Shrinkage Rate) ([3]; in vivo): 94% and 100%
Deaths ([4]; 3 mg/kg × 5 days): 0/10
Shrink (number of animals) ([4]; 3 mg/kg × 5 days): 0/10
TGI (% Tumor Growth Inhibition Rate) ([4]; 3 mg/kg × 5 days): 35%
TGI (number of animals) ([4]; 3 mg/kg × 5 days): 10/10
Deaths ([4]; 8 mg single ds): 0/10
Shrink (number of animals) ([4]; 8 mg single ds): 0/10
TGI (number of animals) ([4]; 8 mg single ds): 0/10
efficacy, single dose ([4]; single dose, in words): completely ineffective
in vivo antitumor efficacy (B16 murine melanoma): superior to unmodified camptothecin
anti-tumor effect in vitro (carcinoma cells): significant anti-tumor effects
water solubility [5]: 1000 µg/mL
